Patent US12365692B2, “6-hydroxy-8-oxatricyclo[3.2.1.02,4]octane-2-carboxamide derivatives for inducing chondrogenesis for treating joint damage” (NOVARTIS AG, priority 2018, dated 2025)
pIC50: −log10 of the molar value. Like-named read-outs stand apart in the source and are kept apart here.

Tested on: ALP in NHAC (normal human articular chondrocytes)
Experiment: Alkaline Phosphatase (ALP) activity assay: ALP staining and quantitation in NHACs (prevention of chondrocyte hypertrophy)
Assay type: cell-based
Conditions: human IL-1 beta 10 ng/mL, 12 days; for pIC50: Fast Blue RR staining, high content imaging
Procedure, shortened: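 NHACs were plated with test compound in DMEM containing 10% FBS, and human IL-1 beta was added 5 h later at 10 ng/mL final. Cultures were kept 12 days at 37° C, 5% CO2. Cells were then fixed, ALP-stained with Fast Blue RR/Naphthol AS-MX, and hypertrophic cells were imaged and quantified by high-content imaging.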

[1] = Chondrocyte, 288 h, read-out: ALP in NHAC (% Efficacy)

Compound | Emax | pIC50 | pIC50 (Chondrocyte, 288 h) | Emax [1]
(1R,2R,4S,5R,6S)—N-(2-cyano-5-(trifluoromethyl)phenyl)-6-hydroxy-4-(2-methoxypyridin-4-yl)-8-oxatricyclo[3.2.1.02,4]octane-2-carboxamide or (1S,2S,4R,5S,6R)—N-(2-cyano-5-(trifluoromethyl)phenyl)-6-hydroxy-4-(2-methoxypyridin-4-yl)-8-oxatricyclo[3.2.1.02,4]octane-2-carboxamide [Example 39a] | (90) % | 6.54 |  | 
COc1cc(NC(=O)[C@]23C[C@@]2(c2cn(C)nc2C(F)(F)F)[C@H]2O[C@@H]3C[C@@H]2O)cc(C(F)(F)F)c1 (racemic) [Example 61, rac-(1R,2R,4S,5R,6S)-6-hydroxy-N-(3-methoxy-5-(trifluoromethyl)phenyl)-4-(1-methyl-3-(trifluoromethyl)-1H-pyrazol-4-yl)-8-oxatricyclo[3.2.1.02,4]octane-2-carboxamide] |  |  | < 4.52 | 29%
N#Cc1ccc(C(F)(F)F)cc1NC(=O)[C@]12C[C@@]1(c1ccnc(F)c1)[C@H]1O[C@@H]2C[C@@H]1O (racemic) [Example 78, rac-(1R,2R,4S,5R,6S)—N-(2-cyano-5-(trifluoromethyl)phenyl)-4-(2-fluoropyridin-4-yl)-6-hydroxy-8-oxatricyclo[3.2.1.02,4]octane-2-carboxamide] |  |  | < 4.52 | 40%
